Test results: US20240293400A1, “NOVEL AZAINDOLE DERIVATIVES AS ANTIVIRAL AGENTS” (Centre National de la Recherche Scientifique, priority 2021, published 2024)

Key:
[1] = tested on: DENV subtype 2 strain (DENV2); experiment: Antiviral activity against the dengue virus in HeLa cells; type: cell-based; details: 72 h, DENV2, 3 days
[2] = tested on: CHIKV virus, LR-OPY1 strain; experiment: Antiviral activity against the Chikungunya virus in HeLa cells; type: cell-based; details: 24 h
ZIKV BeH8 strain = details: cited from earlier work

For `Nc1nc(Nc2ccc3c(c2)CC[C@@H](N2CCCC2)CC3)nn1-c1cc2c(nn1)-c1ccccc1CCC2` [R428/Bemcentinib, Bemcentinib], the IC50 [1] is listed as 488 nM, the IC50 [2] is listed as 239 nM and the “concentrations of efficacy against the ZIKV virus described in the literature” value (ZIKV BeH8 strain) is listed as 1 to 3 µM.
